Experiment: Stability study of lyophilized Compound I with mannitol (Method A / Method B samples)
Format: physicochemical
Settings: Method B sample
Description: […] Each 30 mL Type I, clear glass sample vial with 20 mm Freeze Dry Stoppers (Flurotech™ coated) contained 150 mg of Compound I.
At each time point, a vial was removed from the stored condition and reconstituted with 10 mL of D5W and analyzed by HPLC method as discussed in Example 5 at 1 month, 2 months, 3 months, and/or 6 months. In Tables 18-18e, RRT matches the Compounds as shown below.
Sample Preparation—Method A: 10% Mannitol solution was prepared by weighing 200 g±1.0 g of mannitol into glass beaker, adding approximately 1500 mL of WFI (water for injection) to the beaker and stirring until mannitol was dissolved. The mannitol solution was transferred to a 2 L volumetric flask and made to volume with WFI, then poured back to the original beaker to sir and mix further. 1M HCl solution was prepared by adding 16.4 mL of HCl (37%) to a 200 mL volumetric flask containing approximately 100 mL of WFI, adding WFI to make 200 mL in volume, and inverting to mix the prepared solution.
To a tared 2 L Schott bottle containing a magnetic stirrer and wrapped in aluminum foil, 1020 g±1.0 g of the 10% mannitol solution was added. Then, 58.4 g±0.05 g of the 1M HCl solution was added to the 2 L Schott bottle and stirred for approximately 10 minutes. The solution prepared in the 2 L Schott bottle was purged with nitrogen which was continued throughout the manufacturing process. 30.22 g of Compound I (free base) was weighed then added to the 2 L Schott bottle containing 10% mannitol solution and 1 M HCl solution with continual magnetic stirring. The container used to weigh Compound I was rinsed with 3×10 mL of WFI and added to the Schott bottle. After Compound I dissolved (approximately 40 minutes), additional 650 g of WFI was added to the Schott bottle and the solution was stirred for approximately 10 minutes. The pH of the Compound I solution (in Schott bottle) was measured then adjusted to pH 4.5±0.1 using 1 M HCl solution. After each addition of 1 M HCl solution, the solution was stirred for several minutes prior to verifying the pH. Once the pH was adjusted, nitrogen purging was stopped. The pH adjusted Compound I solution was further diluted with WFI to a target weight of 2040 g±1.0 g and stirred.
The final solution (pH adjusted and diluted) was filtered (chain including PVD Fmembrane filter 0.45 μm and 0.22 μm; peristaltic filtration pump by Watson Marlow) in the Bigneat and the bottle containing the filtered solution was sealed. The filtered solution was pumped (Watson Marlow Flexicon PF6-B pump; 100 RPM) into 30 mL Schott Clear Glass vials (10.0 mL filtered solution each). The glass vials were partially stoppered with 20 mm Freeze Dry Stopper Flurotec (Daikyo Seiko) one vial at a time with sterilized utensils inside a fume hood (Envair B101+1.5R) and placed on freeze dryer trays. The freeze dryer trays were transferred into freeze dry chamber and vial probe was positioned (Lyostar II; FTS Kinetics). Lyophilization was performed using the lyophilization cycle listed below. After lyophilization cycle finished, the vials were back filled with N2 and the stopper was placed in situ, wiped down with isopropanol in the fume hood once removed from the freeze dryer, reconciled, then crimped. Seven vials out of 186 sample vials placed under the lyophilization cycle had smashed in the freeze dryer.
Sample Preparation—Method B (dissolved oxygen content ≤1 ppm): 2 L WFI was poured into a Schott bottled and degassed for 30 minutes with N2 until dissolved oxygen content was ≤1 ppm (dissolved oxygen meter and probe; Mettler Toledo). 10% Mannitol solution was prepared by adding […] of mannitol and 1000 mL of degassed WFI to a tared 2 L Schott bottle containing a magnetic stirrer and wrapped in aluminum foil. To the Schott bottle containing mannitol, 15 mL of 2M HCl was added and stirred for approximately 10 minutes. The resulting solution was sparged with N2 while stirring until dissolved oxygen content was ≤1 ppm (approx. 30 min). […]

[1] = 5° C, time not printed (2nd block, col 1)
[2] = 5° C, time not printed (2nd block, col 2)
[3] = 5° C, time not printed (2nd block, col 3)
[4] = 5° C, time not printed (2nd block, col 4)

Compound: Cc1cnc(CNC(=O)c2c(=O)c3ccc(N4CCCN(C)CC4)nc3n3c2sc2ccccc23)cn1 [Compound I, 2-(4-Methyl-[1,4]diazepan-1-yl)-5-oxo-5H-7-thia-1,11b-diaza-benzo[c]fluorene-6-carboxylic acid (5-methyl-pyrazin-2-ylmethyl)-amide]
- pH (USP<791>) (5° C, Initial): 4.6
- Appearance [1]: Off-white powder
- Appearance (Reconstituted Solution) [1]: Clear, colorless
- Compound I by HPLC assay [1]: 101.7%
- Related Substances RRT 1.05 [1]: RRT 1.05: 0.14%
- Related Substances RRT 1.07 [1]: RRT 1.07: 0.05%
- Related Substances Total [1]: Total:0.2%
- Water Content USP<921 Method 1c> [1]: 1.37%
- pH (USP<791>) [1]: 4.6
- Appearance [2]: Off-white powder
- Appearance (Reconstituted Solution) [2]: Clear, colorless
- Compound I by HPLC assay [2]: 101.3%
- Related Substances RRT 1.05 [2]: RRT 1.05: 0.13%
- Related Substances Total [2]: Total: 0.1%
- Water Content USP<921 Method 1c> [2]: 1.29%
- pH (USP<791>) [2]: 4.5
- Appearance [3]: Off-white powder
- Appearance (Reconstituted Solution) [3]: Clear, colorless
- Compound I by HPLC assay [3]: 100.3%
- Related Substances RRT 1.05 [3]: RRT 1.05: 0.13%
- Related Substances Total [3]: Total: 0.1%
- Water Content USP<921 Method 1c> [3]: 1.05%
- pH (USP<791>) [3]: 4.5
- Appearance [4]: Off-white powder
- Appearance (Reconstituted Solution) [4]: Clear, colorless
- Compound I by HPLC assay [4]: 99.1%
- Related Substances RRT 1.05 [4]: RRT 1.05: 0.11%
- Related Substances Total [4]: Total: 0.1%
- Water Content USP<921 Method 1c> [4]: 1.25%
- pH (USP<791>) [4]: 4.5
- Appearance (25° C./60% RH, 1 month): White
- Appearance (Reconstituted Solution) (25° C./60% RH, 1 month): Clear, colorless
- Compound I by HPLC assay (25° C./60% RH, 1 month): 99.8%
- Reconstitution Time (25° C./60% RH, 1 month): 55 s
- Related Substances RRT 1.06 (25° C./60% RH, 1 month): 0.17%
- Related Substances RRT 1.08 (25° C./60% RH, 1 month): 0.06%
- Related Substances Total (25° C./60% RH, 1 month): Total: 0.2%
- Water Content USP<921 Method 1c> (25° C./60% RH, 1 month): 1.47%
- pH (USP<791>) (25° C./60% RH, 1 month): 4.4
- Appearance (25° C./60% RH, 2 months): Off-white
- Appearance (Reconstituted Solution) (25° C./60% RH, 2 months): Clear, colorless
- Compound I by HPLC assay (25° C./60% RH, 2 months): 101.0%
- Related Substances RRT 0.17 (25° C./60% RH, 2 months): 0.08%
- Related Substances RRT 1.04 (25° C./60% RH, 2 months): 0.08%
- Related Substances RRT 1.05 (25° C./60% RH, 2 months): 0.17%
- Related Substances Total (25° C./60% RH, 2 months): Total: 0.3%
- Water Content USP<921 Method 1c> (25° C./60% RH, 2 months): 1.30%
- pH (USP<791>) (25° C./60% RH, 2 months): 4.6
- Appearance (25° C./60% RH, 3 months): Off-white
- Appearance (Reconstituted Solution) (25° C./60% RH, 3 months): Clear, colorless
- Compound I by HPLC assay (25° C./60% RH, 3 months): 100.8%
- Related Substances RRT 0.17 (25° C./60% RH, 3 months): 0.09%
- Related Substances RRT 1.04 (25° C./60% RH, 3 months): 0.08%
- Related Substances RRT 1.05 (25° C./60% RH, 3 months): 0.19%
- Related Substances Total (25° C./60% RH, 3 months): Total: 0.4%
- Water Content USP<921 Method 1c> (25° C./60% RH, 3 months): 1.30%
- pH (USP<791>) (25° C./60% RH, 3 months): 4.6
- Appearance (25° C./60% RH, 6 months): Off-white
- Appearance (Reconstituted Solution) (25° C./60% RH, 6 months): Clear, colorless
- Compound I by HPLC assay (25° C./60% RH, 6 months): 100.3%
- Related Substances RRT 0.88 (25° C./60% RH, 6 months): 0.06%
- Related Substances RRT 1.05 (25° C./60% RH, 6 months): 0.16%
- Related Substances RRT 1.07 (25° C./60% RH, 6 months): 0.10%
- Related Substances Total (25° C./60% RH, 6 months): Total: 0.3%
- Water Content USP<921 Method 1c> (25° C./60% RH, 6 months): 1.30%
- pH (USP<791>) (25° C./60% RH, 6 months): 4.5
- Appearance (25° C./60% RH, 12 months): Off-white
- Appearance (Reconstituted Solution) (25° C./60% RH, 12 months): Clear, colorless
- Compound I by HPLC assay (25° C./60% RH, 12 months): 100.7%
- Related Substances RRT 1.05 (25° C./60% RH, 12 months): 0.18%
- Related Substances RRT 1.07 (25° C./60% RH, 12 months): 0.09%
- Related Substances Total (25° C./60% RH, 12 months): Total: 0.3%
- Water Content USP<921 Method 1c> (25° C./60% RH, 12 months): 1.55%
- pH (USP<791>) (25° C./60% RH, 12 months): 4.5
- Appearance (25° C./60% RH, 24 months): Off-white
- Appearance (Reconstituted Solution) (25° C./60% RH, 24 months): Clear, colorless
- Compound I by HPLC assay (25° C./60% RH, 24 months): 97.6%
